We go through one molecule from PMC10709440, “High-throughput ligand profile characterization in novel cell lines expressing seven heterologous insect olfactory receptors for the detection of volatile plant biomarkers” (Scientific Reports, 2023).

One test concerns the target T1, Drosophila OR10a (Drosophila melanogaster, UniProt Q9VYZ1).
T1 construct: expressed in transfected cells
T1 sequence (Q9VYZ1 1-406): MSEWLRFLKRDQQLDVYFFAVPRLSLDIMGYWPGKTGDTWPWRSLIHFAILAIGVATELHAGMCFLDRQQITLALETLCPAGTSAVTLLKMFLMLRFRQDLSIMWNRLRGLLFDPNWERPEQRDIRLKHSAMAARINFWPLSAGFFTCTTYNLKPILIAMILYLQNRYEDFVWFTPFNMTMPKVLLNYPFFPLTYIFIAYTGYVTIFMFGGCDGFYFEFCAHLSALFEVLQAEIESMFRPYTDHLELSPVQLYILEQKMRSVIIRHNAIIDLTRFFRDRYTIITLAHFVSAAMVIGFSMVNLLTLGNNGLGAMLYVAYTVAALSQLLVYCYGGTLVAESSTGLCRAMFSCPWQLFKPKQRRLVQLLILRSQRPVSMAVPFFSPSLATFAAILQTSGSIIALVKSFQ
T1 sequence (Q9VNB5 1-486 partner): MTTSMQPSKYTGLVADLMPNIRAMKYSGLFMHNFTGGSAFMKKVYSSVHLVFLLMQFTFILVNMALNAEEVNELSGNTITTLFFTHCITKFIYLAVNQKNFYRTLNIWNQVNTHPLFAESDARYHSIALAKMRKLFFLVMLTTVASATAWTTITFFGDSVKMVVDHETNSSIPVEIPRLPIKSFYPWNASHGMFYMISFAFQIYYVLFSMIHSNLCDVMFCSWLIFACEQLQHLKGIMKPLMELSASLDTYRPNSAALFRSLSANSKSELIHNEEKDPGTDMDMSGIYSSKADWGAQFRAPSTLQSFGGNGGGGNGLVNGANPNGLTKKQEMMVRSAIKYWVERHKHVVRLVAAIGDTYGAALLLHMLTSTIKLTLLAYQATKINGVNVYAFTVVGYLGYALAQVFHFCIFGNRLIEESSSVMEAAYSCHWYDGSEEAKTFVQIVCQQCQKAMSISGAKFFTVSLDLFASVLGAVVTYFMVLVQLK
Briefly: cell-based. As to conditions: HEK293; relative to 50 uM VUAA1 response; below 0.05 set to 0; read-out: % activation. Also noted: GCaMP6 calcium fluorescence in stable HEK293 OR+ORCO lines; peak dF normalised to 50 uM VUAA1 (=1). On the procedure: (§1) Twelve thousand to 18,000 cells were plated into each well of a black wall, transparent bottom 384-well microplate (Greiner) 48 h or 72 h before the measurements and were simultaneously treated with 1 μg/mL doxycycline. Typically, three columns were filled with one OR expressing cell line, each row was treated with the same compound (three technical replicates for each OR), and each responsive VOC-OR combination was measured at least three times on different days. The plate has 24 columns, thus we could record responses in up to eight different cell lines in each plate. On the day of the experiment, the growth medium was replaced with 20 µL assay buffer/well (140 mM NaCl, 5 mM KCl, 2 mM CaCl2, 1 mM MgCl2, 5 mM HEPES-Na, 20 mM glucose, pH 7.3, 340 mOsm). […] Baseline fluorescence (F0) was recorded for 5 s, after which 7 µL VOC buffer (140 mM NaCl, 5 mM KCl, 2 mM CaCl2, 1 mM MgCl2, 5 mM HEPES-Na, 31 mM glucose, 0.1% DMSO, pH 7.3, 340 mOsm) was injected into each well in one row and the fluorescence response was recorded for an additional 30 s, at a rate of one read/sec. VOC solutions (VOC buffer with 4× concentration of the final measured VOC concentration, 9 µL/well was injected) were measured on the same wells in a second round with the same protocol. Each individual concentration of a specific VOC sample was recorded in three wells for the same cell line on the same microplate. The raw data were exported in xls file format, F0 and FMAX values, and the fluorescence intensity changes (∆F) were calculated in Excel (Microsoft) (Supplementary file Data summary.xlsx) using the following equation: ΔF=FMAX-F0/F0 (see also Fig. 1C). On each plate, we recorded the response of each cell line to 50 µM VUAA1. The average of these ∆F values of each cell line were used to calculate the VUAA1-normalized values for the rest of the plate, by dividing VOC response ∆F values by the average VUAA1 response ∆F value of the corresponding OR cell line. Each VOC-OR combination was measured three times as tec The recorded FMAX, F0, ∆F, VUAA1-normalized ∆F values, as well as the OR name, the name of the tested sample, and the final concentration for each well were copied into supplementary file Data summary.xlsx, that was used to summarize all the plates recorded. Here, the averages of the measurements were calculated for each receptor-VOC-concentration combination. […] Each VOC was measured at 1, 10, and 100 µM final concentration on each receptor. VUAA1-normalized response was calculated as described in methods. Values are averages of at least three biological replicates for responsive combinations and two for the non-responsive combinations. The chemical structures of the strong and medium ligands are shown for each cell line. Heat map: white-green colors correspond to the lowest-highest values measured for each cell line.

In a further test the target is T2, Drosophila OR47a (Drosophila melanogaster, UniProt P81921).
T2 construct: expressed in transfected cells
T2 sequence (P81921 1-385): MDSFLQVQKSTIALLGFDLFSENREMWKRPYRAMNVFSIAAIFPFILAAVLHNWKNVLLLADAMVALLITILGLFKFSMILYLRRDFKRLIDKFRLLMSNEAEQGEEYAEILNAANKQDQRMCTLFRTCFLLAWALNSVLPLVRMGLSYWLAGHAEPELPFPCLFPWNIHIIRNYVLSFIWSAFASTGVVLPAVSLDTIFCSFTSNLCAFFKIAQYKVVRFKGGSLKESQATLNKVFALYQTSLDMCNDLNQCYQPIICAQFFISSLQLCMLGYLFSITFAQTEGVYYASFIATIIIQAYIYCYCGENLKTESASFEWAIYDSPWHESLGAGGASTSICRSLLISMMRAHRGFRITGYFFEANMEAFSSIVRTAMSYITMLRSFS
T2 sequence (Q9VNB5 1-486 partner): T1 sequence (Q9VNB5 1-486 partner)
Briefly: cell-based. Also on record: GCaMP6 calcium fluorescence in stable HEK293 OR+ORCO lines; peak dF normalised to 50 uM VUAA1 (=1). As to conditions: HEK293; relative to 50 uM VUAA1 response; below 0.05 set to 0; read-out: % activation. The procedure:
as §1

For the molecule `CC/C=C/CCO` [e3-hexenol], at Drosophila OR10a, the activity at 1 µM amounted to 0%, the activity at 10 µM was found to be 0% and the activity at 100 µM turned out to be 7.4%. In addition, on Drosophila OR47a, the activity at 1 µM was 6.26%, the activity at 10 µM was 0% and the activity at 100 µM is 14%.
